Data as given in patent US6020374A, “Biologically active synthetic dye compounds” (priority 1998, dated 2000).

Assays:
[1] = tested on: 185 kDa protein(s) (p185); experiment: Tyrosine phosphorylation of p185 in MCF-7 cells (anti-phosphotyrosine immunoblot); assay type: cell-based; conditions: MCF-7 cells; for Tyrosine phosphorylation of a 185 kDa protein(s): ATA, EB each at 300 μg/ml, IGF-1 at 20 ng/ml; for Exposure time at which p185 phosphorylation peaked: 300 μg/ml ATA, 30 μg/ml EB
Method: FIG. 1 is the effect of ATA and EB on tyrosine phosphorylation: MCF-7 cells, grown in 35 mm dishes were solubilized in Buffer A (a) or Buffer B (b-c). The solubilized cells were subjected to 7.5% SDS-PAGE and immunoblotted with an anti-phosphotyrosine antibody. (a) Cells treated for 5 mins. with ATA, EB, each at 300 μg/ml, IGF-1 at 20 ng/ml, or without additives (CON); (b) Cells treated with 300 μg/ml ATA for the indicated times; (c) Cells treated with 30 μg/ml EB for the indicated times; (d) Cells treated for 5 mins. with the indicated concentrations of ATA; (e) Cells treated for 5 mins. with the indicated concentrations of EB. Molecular mass markers (in kDa) are indicated on the right.
FIG. 2 is the effect of ATA and vanadate on the IGF-1 stimulated tyrosine phosphorylation of p185: A--Cells treated for 5 mins. with the indicated concentrations of IGF-1 in the presence or absence of 300 μg/ml ATA; B--Cells pre-incubated for 3 hours with or without 50 μM vanadate were incubated for 5 mins. with ATA, EB each at 300 μg/ml or with 10 ng/ml IGF-1 in the presence or absence of vanadate. Cytosols extracted in Buffer B were analyzed by immunoblotting with anti-phosphotyrosine antibody as in FIG. 1.
FIG. 8 is the effect of fractionated ATA on p185 phosphorylation: A--Crude ATA was separated on a Bio-Rad P-4 column and the combined void volume was then gel filtrated on a column of Bio-Rad P-10. The column was calibrated with the following molecular weight markers: DB-Dextran blue; CC-cytochrome C: Ins-insulin; B12-Vitamin B12. B--MCF-7 cells were incubated for 5 mins. with the indicated fractions of ATA (eluted from the P-10 column shown in A), crude ATA, each at 200 μg/ml or IGF-1 at 20 ng/ml. Cytosols, solubilized in Buffer B were subjected to 7.5% SDS-PAGE and immunoblotted with phosphotyrosine antibody.
(§1) MCF-7 cells were grown in 35 or 100 mm dishes in DMEM with 5% bovine fetal serum. Rat hepato FaO cells were grown in RPMI 1640 medium supplemented with 10% fetal calf serum. Subconfluent monolayers of MCF-7 cells or FaO cells, were deprived of serum for 20 hours prior to each experiment. The medium was removed, and cells were incubated at 37° C. under the conditions as indicated for each experiment. The reaction was terminated by removing the medium and freezing the monolayers with liquid nitrogen. In some experiments, cells were preincubated with 50 μM sodium orthovanadate for 3 hours.
Cells were solubilized at 4° C. with 0.2 ml/35 mm dish or 2 ml/100 mm dish of the indicated buffer. The solubilized cells were scraped and sedimented by centrifugation at 12,000×g for 30 mins. at 4° C. Aliquots of the supernatants were normalized for protein, mixed with concentrated (5×) Laemmli sample buffer, boiled for 10 mins. and resolved on 7.5 or 12% SDS-PAGE under reducing conditions.
(§2) Nitrocellulose blots of proteins were incubated with the antibodies, and proteins were detected by enhanced chemiluminescence using horseradish peroxidase-labeled protein A, horseradish peroxidase-labeled anti rabbit IgG or horseradish peroxidase-labeled anti-mouse IgG.

IGF-1 receptor β subunit = target: T1, IGF-1 receptor β subunit (Homo sapiens, UniProt P08069); experiment: Tyrosine phosphorylation of IGF-1 receptor in MCF-7 cells; assay type: cell-based; conditions: 5 mins., ATA, EB each at 300 μg/ml
T1 construct: endogenous in cells; host or cells: MCF-7
Method: FIG. 6 is the effect of ATA and EB on tyrosine phosphorylation of IGF-1 receptor: MCF-7 cells, grown in 100 mm dishes, were treated with ATA, EB each at 300 μg/ml, or 20 ng/ml IGF-1 for 5 mins. Total cell extracts, solubilized in Buffer A, were immunoprecipitated with IGF1R antibody. The immunocomplexes precipitataed with protein G-Sepharose beads, were subjected to 7.5% SDS-PAGE followed by immunoblotting with a phosphotyrosine antibody. The membrane, after ECL detection, was stripped of bound antibody and reblotted with IGF1R antibody (IGF1R).
Cells were solubilized in Buffer A or C. Extracts were immunoprecipitated at 4° C. with antibodies to IRS-1, IRS-2, IGF-1 or IR receptor or Grb2, adsorbed on protein A-Sepharose beads. The immunocomplexes were pelleted by centrifugation at 12,000×g and washed twice with Buffer A, and twice with Buffer A containing 0.1% Triton x-100. The pellets were then suspended in Laemmli sample buffer and resolved on 7.5% SDS-PAGE.
(§3) Nitrocellulose blots of proteins were incubated with the antibodies, and proteins were detected by enhanced chemiluminescence using horseradish peroxidase-labeled protein A, horseradish peroxidase-labeled anti rabbit IgG or horseradish peroxidase-labeled anti-mouse IgG. […]

[2] = tested on: MAPK-1 (44 kDa) and MAPK-2 (42 kDa); experiment: Activation of MAPKs in MCF-7 cells (anti-active MAPK immunoblot); assay type: cell-based; conditions: 5 mins., ATA, EB each at 300 μg/ml, IGF-1 20 or 40 ng/ml
Method: FIG. 7 is the effect of ATA and EB on activation of MAPKs: MCF-7 cells were treated for 5 mins. with ATA, EB, each at 300 μg/ml, 20 ng/ml or 40 ng/ml IGF-1. Cell lysates, solubilized in Buffer C, were subjected to 12% SDS-PAGE and immunoblotted with an anti-active MAPK antibody. The membrane, after ECL detection, was stripped of bound antibody and blotted with an anti-MAPK antibody.
as §2
The activated forms of MAPKs were detected by anti-active MAPK immunoblotting in the MCF-7 cell's lysates. […] Blotting with anti MAPKs antibodies confirms that similar amounts of MAPKs were present in treated and non-treated cells.

IRS-2 = IRS-2 tyrosine phosphorylation and association with p85 in FaO cells; assay type: cell-based, rat; conditions: 5 mins., EB 200 μg/ml, insulin 600 ng/ml
Method: FIG. 9 is the tyrosine phosphorylation of the IR cascade in Fao cells: A--Immunoblot analysis: Fao cells were deprived of serum for 20 hours, then incubated with EB, ATA, at 200 μg/ml or insulin at 600 ng/ml for 5 mins. Cell extracts were subjected to immunoprecipitation with antibodies to: IR β-subunit (αIR), IRS-1 (αIRS-1) and to IRS-2 (αIRS-2). The immunoprecipitates and total cell extracts were analyzed by SDS-PAGE. Proteins were transferred to nitrocellulose papers, and phosphotyrosine containing proteins were probed with anti-phosphotyrosine antibodies (αP-Tyr), antibody to the 85-kDa subunit of PI3-kinase (αp85) and antibodies to active MAPK (α active MAPK). The immunoblots were visualized by ECL (Amersham).
as §1, with “The reaction was terminated by removing the medium and freezing the monolayers with liquid nitrogen. In some experiments, cells were preincubated with 50 μM sodium orthovanadate for 3 hours.” left out
as §3

T1 sequence (P08069 741-1367 limits assumed): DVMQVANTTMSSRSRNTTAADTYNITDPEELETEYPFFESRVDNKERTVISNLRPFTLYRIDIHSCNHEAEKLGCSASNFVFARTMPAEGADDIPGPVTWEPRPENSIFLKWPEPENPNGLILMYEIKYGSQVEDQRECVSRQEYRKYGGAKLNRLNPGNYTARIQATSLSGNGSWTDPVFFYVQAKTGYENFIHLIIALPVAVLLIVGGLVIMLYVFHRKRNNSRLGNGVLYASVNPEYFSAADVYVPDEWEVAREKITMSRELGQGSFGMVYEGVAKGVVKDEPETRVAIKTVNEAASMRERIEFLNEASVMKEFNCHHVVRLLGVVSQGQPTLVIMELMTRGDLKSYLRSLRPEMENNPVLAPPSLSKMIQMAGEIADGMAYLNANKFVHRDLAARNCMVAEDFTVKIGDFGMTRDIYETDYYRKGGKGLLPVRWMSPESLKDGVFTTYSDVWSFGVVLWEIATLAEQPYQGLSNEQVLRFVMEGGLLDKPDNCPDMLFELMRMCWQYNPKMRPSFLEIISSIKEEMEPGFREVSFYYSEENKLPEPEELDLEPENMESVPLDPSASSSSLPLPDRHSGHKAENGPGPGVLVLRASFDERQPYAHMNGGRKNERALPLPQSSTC
T1 sequence (P08069 31-736 limits assumed): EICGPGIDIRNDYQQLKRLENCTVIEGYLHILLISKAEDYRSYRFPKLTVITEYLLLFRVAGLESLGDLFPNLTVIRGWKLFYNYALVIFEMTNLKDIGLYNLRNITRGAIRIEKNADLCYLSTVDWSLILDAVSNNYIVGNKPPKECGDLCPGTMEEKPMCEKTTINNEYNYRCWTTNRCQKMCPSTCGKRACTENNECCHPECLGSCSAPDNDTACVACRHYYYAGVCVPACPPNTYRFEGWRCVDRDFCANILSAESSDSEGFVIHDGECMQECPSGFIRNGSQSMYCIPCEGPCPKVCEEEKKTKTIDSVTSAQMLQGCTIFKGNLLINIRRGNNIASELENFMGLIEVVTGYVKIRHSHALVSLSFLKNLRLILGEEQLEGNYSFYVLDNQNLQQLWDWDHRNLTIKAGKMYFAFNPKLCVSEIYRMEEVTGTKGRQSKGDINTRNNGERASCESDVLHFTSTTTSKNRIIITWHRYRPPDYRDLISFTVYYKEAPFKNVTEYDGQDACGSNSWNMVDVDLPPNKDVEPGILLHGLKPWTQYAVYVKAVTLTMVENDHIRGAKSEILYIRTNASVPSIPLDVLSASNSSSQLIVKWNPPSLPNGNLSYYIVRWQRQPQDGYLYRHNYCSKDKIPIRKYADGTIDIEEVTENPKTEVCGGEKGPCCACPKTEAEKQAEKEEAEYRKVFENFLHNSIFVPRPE

SMILES | Concentration of maximal p185 phosphorylation ([1]; 5 mins.) [µg/mL] | Effect on IGF-1 induced phosphorylation of the 185 kDa protein(s) ([1]; 5 mins., 300 μg/ml ATA with IGF-1) | pp185 (arbitrary units) ([1]; 5 mins., ATA fractions or crude ATA each at 200 μg/ml, scanned autoradiogram from FIG. 8B, Control 100) | Tyrosine phosphorylation of a 185 kDa protein(s) ([1]; 5 mins.) | Exposure time at which p185 phosphorylation peaked [1] [min] | Tyrosine phosphorylation of IGF-1 receptor β subunit (IGF-1 receptor β subunit) | Phosphorylated (active) isoforms MAPK-1 and MAPK-2 [2] | IRS-2 tyrosine phosphorylation and association with the 85-kDa regulatory subunit of PI-kinase (IRS-2)
O=C(O)C1=CC(=C(c2ccc(O)c(C(=O)O)c2)c2ccc(O)c(C(=O)O)c2)C=CC1=O [ATA, Aurintricarboxylic acid] | 300 to 400 | unaffected | 668 | enhanced tyrosine phosphorylation of a 185 kDa protein(s) | 2 | phosphorylated the IGF-1 receptor β subunit | clearly detected | –
Cc1cc(-c2ccc(N=Nc3ccc4c(S(=O)(=O)O)cc(S(=O)(=O)O)c(N)c4c3O)c(C)c2)ccc1N=Nc1ccc2c(S(=O)(=O)O)cc(S(=O)(=O)O)c(N)c2c1O [EB, Evan's Blue] | 300 to 400 | – | – | enhanced tyrosine phosphorylation of a 185 kDa protein(s) | 5 | phosphorylated the IGF-1 receptor β subunit | clearly detected | enhanced
